According to the supplement of paper PMC10627819:

Key:
S. aureus DSM 20231 [1] = experiment: fitness (endpoint OD595 vs no drug) (fraction); higher = more growth
How it was run: (§1)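 Fitness compares growth at the stationary-phase transition with the robust mean of no-drug control wells, as a ratio of optical densities. The ratio is capped at 1. Wells of 384-well plates held 30 µl, or 55 µl for S. pneumoniae, inoculated at OD595 0.01. Readings at OD595 every 30 min for 14 h at 37 °C were corrected against the first reading.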

S. aureus Newman [2] = experiment: as above
How it was run: as §1

S. pneumoniae D39V [3] = experiment: as above
How it was run: as §1

B. subtilis 168 = experiment: Bliss interaction score (quartile over a dose matrix) (fitness difference); higher = more antagonism (negative = synergy)
How it was run: (§2)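 Each OD595 reading at entry into stationary phase was scaled to the robust mean of the untreated wells on its plate, with a ceiling of 1. These ratios define fitness, and single-drug fitness was inferred from combinations. The Bliss score compares observed fitness with the product-based expectation and is reported as quartiles across all replicate types, technical, biological and donor/recipient.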

S. aureus DSM 20231 [4] = experiment: as above
How it was run: as §2

S. aureus Newman [5] = experiment: as above
How it was run: as §2

S. pneumoniae D39V [6] = experiment: as above
How it was run: as §2

[7] = first compound 0.125 µg/mL, partner 0.15 µg/mL
[8] = first compound 0.125 µg/mL, partner 0.3 µg/mL
[9] = first compound 0.125 µg/mL, partner 0.6 µg/mL
[10] = first compound 0.25 µg/mL, partner 0.15 µg/mL
[11] = first compound 0.25 µg/mL, partner 0.3 µg/mL
[12] = first compound 0.25 µg/mL, partner 0.6 µg/mL
[13] = first compound 0.5 µg/mL, partner 0.15 µg/mL
[14] = first compound 0.5 µg/mL, partner 0.3 µg/mL
[15] = first compound 0.5 µg/mL, partner 0.6 µg/mL
[16] = first compound 0.125 µg/mL, partner 4 µg/mL
[17] = first compound 0.125 µg/mL, partner 8 µg/mL
[18] = first compound 0.125 µg/mL, partner 16 µg/mL
[19] = first compound 0.125 µg/mL, partner 32 µg/mL, one replicate
[20] = first compound 0.125 µg/mL, partner 64 µg/mL, one replicate
[21] = first compound 0.25 µg/mL, partner 4 µg/mL
[22] = first compound 0.25 µg/mL, partner 8 µg/mL
[23] = first compound 0.25 µg/mL, partner 16 µg/mL
[24] = first compound 0.25 µg/mL, partner 32 µg/mL, one replicate
[25] = first compound 0.25 µg/mL, partner 64 µg/mL, one replicate
[26] = first compound 0.5 µg/mL, partner 4 µg/mL
[27] = first compound 0.5 µg/mL, partner 8 µg/mL
[28] = first compound 0.5 µg/mL, partner 16 µg/mL
[29] = first compound 0.5 µg/mL, partner 32 µg/mL, one replicate
[30] = first compound 0.5 µg/mL, partner 64 µg/mL, one replicate
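For Bliss interaction score (quartile over a dose matrix) in this document: first quartile when negative (synergy) and third quartile when positive (antagonism).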
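For fitness (endpoint OD595 vs no drug) in this document: OD595 on entry to stationary phase over no-drug wells; at most 1.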

With `CO/N=C(\C(=O)N[C@@H]1C(=O)N2C(C(=O)[O-])=C(C[N+]3(C)CCCC3)CS[C@H]12)c1csc(N)n1` [Cefepime] + CN(N=O)C(=O)N[C@@H](C=O)[C@@H](O)[C@H](O)[C@H](O)CO [Streptozotocin] the fitness (S. aureus DSM 20231 [1]; [7]) was 0.789, the fitness (S. aureus DSM 20231 [1]; [8]) was 0.667 and the fitness (S. aureus DSM 20231 [1]; [9]) was 0.589. It also gave a fitness (S. aureus DSM 20231 [1]; [10]) of 0.705, a fitness (S. aureus DSM 20231 [1]; [11]) of 0.645 and a fitness (S. aureus DSM 20231 [1]; [12]) of 0.588. The fitness (S. aureus DSM 20231 [1]; [13]) was 0.721, the fitness (S. aureus DSM 20231 [1]; [14]) was 0.713 and the fitness (S. aureus DSM 20231 [1]; [15]) was 0.61. The fitness (S. aureus Newman [2]; [7]) was 0.814, the fitness (S. aureus Newman [2]; [8]) was 0.717 and the fitness (S. aureus Newman [2]; [9]) was 0.505. The fitness (S. aureus Newman [2]; [10]) was 0.765, the fitness (S. aureus Newman [2]; [11]) was 0.641 and the fitness (S. aureus Newman [2]; [12]) was 0.482. It also gave a fitness (S. aureus Newman [2]; [13]) of 0.682, a fitness (S. aureus Newman [2]; [14]) of 0.66 and a fitness (S. aureus Newman [2]; [15]) of 0.506. The fitness (S. pneumoniae D39V [3]; first compound 0.007 µg/mL, partner 1.2 µg/mL) was 0.964, the fitness (S. pneumoniae D39V [3]; first compound 0.007 µg/mL, partner 2.4 µg/mL) was 0.987 and the fitness (S. pneumoniae D39V [3]; first compound 0.007 µg/mL, partner 4.8 µg/mL) was 0.966. For the same compound, the fitness (S. pneumoniae D39V [3]; first compound 0.0078 µg/mL, partner 1.2 µg/mL, one replicate) was 0.984, the fitness (S. pneumoniae D39V [3]; first compound 0.0078 µg/mL, partner 2.4 µg/mL, one replicate) was no less than 1 and the fitness (S. pneumoniae D39V [3]; first compound 0.0078 µg/mL, partner 4.8 µg/mL, one replicate) was 0.956. For the same compound, the fitness (S. pneumoniae D39V [3]; first compound 0.014 µg/mL, partner 1.2 µg/mL) was 0.935, the fitness (S. pneumoniae D39V [3]; first compound 0.014 µg/mL, partner 2.4 µg/mL) was 0.993 and the fitness (S. pneumoniae D39V [3]; first compound 0.014 µg/mL, partner 4.8 µg/mL) was 0.983. For the same compound, the fitness (S. pneumoniae D39V [3]; first compound 0.0155 µg/mL, partner 1.2 µg/mL, one replicate) was 0.953, the fitness (S. pneumoniae D39V [3]; first compound 0.0155 µg/mL, partner 2.4 µg/mL, one replicate) was 0.937 and the fitness (S. pneumoniae D39V [3]; first compound 0.0155 µg/mL, partner 4.8 µg/mL, one replicate) was 0.895. The fitness (S. pneumoniae D39V [3]; first compound 0.028 µg/mL, partner 1.2 µg/mL) was 0.824, the fitness (S. pneumoniae D39V [3]; first compound 0.028 µg/mL, partner 2.4 µg/mL) was 0.923 and the fitness (S. pneumoniae D39V [3]; first compound 0.028 µg/mL, partner 4.8 µg/mL) was 0.868. The fitness (S. pneumoniae D39V [3]; first compound 0.031 µg/mL, partner 1.2 µg/mL, one replicate) was 0.186, the fitness (S. pneumoniae D39V [3]; first compound 0.031 µg/mL, partner 2.4 µg/mL, one replicate) was 0.289 and the fitness (S. pneumoniae D39V [3]; first compound 0.031 µg/mL, partner 4.8 µg/mL, one replicate) was 0.0426. It also gave a Bliss interaction score (B. subtilis 168) of -0.0416, a Bliss interaction score (S. aureus DSM 20231 [4]) of -0.0779 and a Bliss interaction score (S. aureus Newman [5]) of 0.0304. The Bliss interaction score (S. pneumoniae D39V [6]) was -0.0319.
Compound `CO/N=C(\C(=O)N[C@@H]1C(=O)N2C(C(=O)[O-])=C(C[N+]3(C)CCCC3)CS[C@H]12)c1csc(N)n1` [Cefepime] + CN[C@@H]1[C@H](O)[C@H](NC)[C@H]2O[C@@]3(O)C(=O)C[C@@H](C)O[C@H]3O[C@@H]2[C@H]1O [Spectinomycin] has a fitness (S. aureus DSM 20231 [1]; [16]) of 0.755, a fitness (S. aureus DSM 20231 [1]; [17]) of 0.865 and a fitness (S. aureus DSM 20231 [1]; [18]) of 0.806. The fitness (S. aureus DSM 20231 [1]; [19]) was 0.736, the fitness (S. aureus DSM 20231 [1]; [20]) was 0.0956 and the fitness (S. aureus DSM 20231 [1]; [21]) was 0.729. It also gave a fitness (S. aureus DSM 20231 [1]; [22]) of 0.849, a fitness (S. aureus DSM 20231 [1]; [23]) of 0.764 and a fitness (S. aureus DSM 20231 [1]; [24]) of 0.669. For the same compound, the fitness (S. aureus DSM 20231 [1]; [25]) was 0.0736, the fitness (S. aureus DSM 20231 [1]; [26]) was 0.851 and the fitness (S. aureus DSM 20231 [1]; [27]) was 0.861. It also gave a fitness (S. aureus DSM 20231 [1]; [28]) of 0.778, a fitness (S. aureus DSM 20231 [1]; [29]) of 0.647 and a fitness (S. aureus DSM 20231 [1]; [30]) of 0.0704. For the same compound, the fitness (S. aureus Newman [2]; [16]) was 0.835, the fitness (S. aureus Newman [2]; [17]) was 0.864 and the fitness (S. aureus Newman [2]; [18]) was 0.847. For the same compound, the fitness (S. aureus Newman [2]; [19]) was 0.418, the fitness (S. aureus Newman [2]; [20]) was 0.0932 and the fitness (S. aureus Newman [2]; [21]) was 0.809. It also gave a fitness (S. aureus Newman [2]; [22]) of 0.805, a fitness (S. aureus Newman [2]; [23]) of 0.766 and a fitness (S. aureus Newman [2]; [24]) of 0.372. It also gave a fitness (S. aureus Newman [2]; [25]) of 0.0802, a fitness (S. aureus Newman [2]; [26]) of 0.724 and a fitness (S. aureus Newman [2]; [27]) of 0.742. It also gave a fitness (S. aureus Newman [2]; [28]) of 0.682, a fitness (S. aureus Newman [2]; [29]) of 0.182 and a fitness (S. aureus Newman [2]; [30]) of 0.0762. The fitness (S. pneumoniae D39V [3]; first compound 0.007 µg/mL, partner 4 µg/mL) was 0.935, the fitness (S. pneumoniae D39V [3]; first compound 0.007 µg/mL, partner 8 µg/mL) was 0.943 and the fitness (S. pneumoniae D39V [3]; first compound 0.007 µg/mL, partner 16 µg/mL) was 0.916. It also gave a fitness (S. pneumoniae D39V [3]; first compound 0.0078 µg/mL, partner 4 µg/mL, one replicate) of no less than 1, a fitness (S. pneumoniae D39V [3]; first compound 0.0078 µg/mL, partner 8 µg/mL, one replicate) of 0.999 and a fitness (S. pneumoniae D39V [3]; first compound 0.014 µg/mL, partner 4 µg/mL) of 0.935. For the same compound, the fitness (S. pneumoniae D39V [3]; first compound 0.014 µg/mL, partner 8 µg/mL) was 0.974, the fitness (S. pneumoniae D39V [3]; first compound 0.014 µg/mL, partner 16 µg/mL) was 0.918 and the fitness (S. pneumoniae D39V [3]; first compound 0.0155 µg/mL, partner 4 µg/mL, one replicate) was 0.988. It also gave a fitness (S. pneumoniae D39V [3]; first compound 0.0155 µg/mL, partner 8 µg/mL, one replicate) of no less than 1, a fitness (S. pneumoniae D39V [3]; first compound 0.028 µg/mL, partner 4 µg/mL) of 0.877 and a fitness (S. pneumoniae D39V [3]; first compound 0.028 µg/mL, partner 8 µg/mL) of 0.873. For the same compound, the fitness (S. pneumoniae D39V [3]; first compound 0.028 µg/mL, partner 16 µg/mL) was 0.876, the fitness (S. pneumoniae D39V [3]; first compound 0.031 µg/mL, partner 4 µg/mL, one replicate) was 0.577 and the fitness (S. pneumoniae D39V [3]; first compound 0.031 µg/mL, partner 8 µg/mL, one replicate) was 0.716. The Bliss interaction score (B. subtilis 168) was -0.0538, the Bliss interaction score (S. aureus DSM 20231 [4]) was -0.0966 and the Bliss interaction score (S. aureus Newman [5]) was -0.0659. For the same compound, the Bliss interaction score (S. pneumoniae D39V [6]) was 0.147.
